In PubChem BioAssay (NCI):
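48-hour exposure; five concentrations; linearly interpolated endpoints. Abbreviation: GI50, concentration required for 50% inhibition of growth. The concentration for full growth arrest is given as TGI.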

How the values were obtained:
Test in all cases: NCI anticancer screen, dose series, 48 h
[1] = test system: 786-0 renal
[2] = test system: RXF 393 renal
[3] = test system: K-562 leukemia
[4] = test system: SF-268 CNS
[5] = test system: OVCAR-8 ovarian
[6] = test system: MOLT-4 leukemia
[7] = test system: RPMI-8226 leukemia
[8] = test system: HCT-15 colon
[9] = test system: SF-539 CNS
[10] = test system: LOX IMVI melanoma

COc1cc(Br)c(C=Nc2cccc3ccc(OS(=O)(=O)c4cccc([N+](=O)[O-])c4)cc23)cc1OC
TGI [1]: > 100 µM | TGI [2]: 43.5 µM | TGI [3]: > 100 µM | TGI [4]: > 100 µM | TGI [5]: 86.5 µM | TGI [6]: > 100 µM | TGI [7]: > 100 µM | TGI [8]: > 100 µM | TGI [9]: 39.5 µM | TGI [10]: > 100 µM

CNC(=S)N/N=C/c1ccc([N+](=O)[O-])s1
TGI [1]: > 10 µM | TGI [2]: > 10 µM | TGI [3]: > 10 µM | TGI [4]: > 10 µM | TGI [5]: > 10 µM | TGI [6]: > 10 µM | TGI [7]: > 10 µM | TGI [8]: > 10 µM | TGI [9]: > 10 µM | TGI [10]: > 10 µM

Nc1nc(CCC(=O)Nc2cccc(C(F)(F)F)c2)cc(-c2ccc3ccccc3c2)n1
TGI [1]: > 100 µM | TGI [2]: > 100 µM | TGI [3]: > 100 µM | TGI [4]: > 100 µM | TGI [5]: > 100 µM | TGI [6]: > 100 µM | TGI [7]: > 100 µM | TGI [8]: > 100 µM | TGI [9]: > 100 µM

COC1CC(OC(=O)c2ccccc2)C(OC(=O)c2ccccc2)C(C)O1 (configuration not stated)
TGI [1]: > 100 µM | TGI [2]: > 100 µM | TGI [3]: > 100 µM | TGI [4]: > 100 µM | TGI [5]: > 100 µM | TGI [6]: > 100 µM | TGI [7]: > 100 µM | TGI [8]: > 100 µM | TGI [9]: > 100 µM | TGI [10]: > 100 µM

COc1ccc(-c2cn[nH]c2-c2cc(OC)c3c(c2)OCCO3)cc1
GI50 [1]: 0.369 µM | TGI [1]: 26.8 µM | GI50 [2]: 0.219 µM | TGI [2]: 2.77 µM | GI50 [3]: 0.0391 µM | TGI [3]: > 100 µM | GI50 [4]: 1.03 µM | TGI [4]: > 74.2 µM | GI50 [5]: 0.363 µM | TGI [5]: 21 µM | GI50 [6]: 0.706 µM | TGI [6]: 34.3 µM | GI50 [7]: 0.373 µM | TGI [7]: 25.2 µM | GI50 [8]: 0.0635 µM | TGI [8]: 22.4 µM | GI50 [9]: 0.124 µM | TGI [9]: 0.441 µM | GI50 [10]: 0.581 µM | TGI [10]: 15.2 µM

Cc1nc(C(N)=S)sc1C(=O)C/C(=N/N)C(=O)Nc1cccc(Cl)c1C
TGI [1]: > 100 µM | TGI [2]: > 100 µM | TGI [3]: > 100 µM | TGI [4]: > 100 µM | TGI [5]: > 100 µM | TGI [6]: > 100 µM | TGI [7]: > 100 µM | TGI [8]: > 100 µM | TGI [9]: > 100 µM | TGI [10]: > 100 µM

COc1cc2nc(-c3ccc(C(F)(F)F)cc3)cc(OCCCN3CCCCC3)c2cc1OC
GI50 [1]: 2.17 µM | TGI [1]: 6.59 µM | GI50 [2]: 1.09 µM | TGI [2]: 4.26 µM | GI50 [3]: 0.578 µM | TGI [3]: 10.4 µM | GI50 [4]: 3.76 µM | TGI [4]: 24.6 µM | GI50 [5]: 0.734 µM | TGI [5]: 20.4 µM | GI50 [6]: 1.7 µM | TGI [6]: 8.56 µM | GI50 [8]: 0.399 µM | TGI [8]: 10.1 µM | GI50 [9]: 2.08 µM | TGI [9]: 8.32 µM | GI50 [10]: 0.162 µM | TGI [10]: 0.355 µM

Fc1cccc(Cl)c1/C=N\N=C1c2ccccc2-c2ccccc21
TGI [1]: > 100 µM | TGI [2]: > 100 µM | TGI [3]: > 100 µM | TGI [4]: > 100 µM | TGI [5]: > 100 µM | TGI [6]: > 100 µM | TGI [7]: > 100 µM | TGI [8]: > 100 µM | TGI [9]: > 100 µM | TGI [10]: > 100 µM

CCc1c(C)c(C#N)c(=S)n(C2OC(CO)C(O)C(O)C2O)c1C (configuration not stated)
TGI [1]: > 100 µM | TGI [2]: > 100 µM | TGI [3]: > 100 µM | TGI [4]: > 100 µM | TGI [5]: > 100 µM | TGI [6]: > 100 µM | TGI [8]: > 100 µM | TGI [9]: > 100 µM | TGI [10]: > 100 µM

O=S1(=O)c2ccccc2NC(=S)CC1c1ccccc1 (configuration not stated)
TGI [1]: > 100 µM | TGI [2]: > 100 µM | TGI [3]: > 100 µM | TGI [4]: > 100 µM | TGI [5]: > 100 µM | TGI [6]: > 100 µM | TGI [7]: > 100 µM | TGI [8]: > 100 µM | TGI [10]: > 100 µM

Cc1ccc(N=Nc2c(C)c(C#N)c(=S)n(C3OC(CO)C(O)C(O)C3O)c2-c2ccccc2)cc1 (configuration not stated)
TGI [1]: 49.8 µM | TGI [2]: 50.6 µM | TGI [3]: 83.3 µM | TGI [4]: 68 µM | TGI [6]: 38.9 µM | TGI [7]: > 100 µM | TGI [8]: 63.7 µM | TGI [9]: 48.9 µM | TGI [10]: 31.2 µM

Oc1ccccc1-c1nc2c3ccccc3c3ccccc3c2[nH]1
GI50 [1]: 4.67 µM | TGI [1]: 13.6 µM | GI50 [2]: 6.23 µM | TGI [2]: 18.8 µM | GI50 [4]: 10.6 µM | TGI [4]: 22.6 µM | GI50 [5]: 12.1 µM | TGI [5]: 24.5 µM | GI50 [6]: 2.76 µM | TGI [6]: 10.7 µM | GI50 [7]: 1.93 µM | TGI [7]: 14.4 µM | GI50 [8]: 5.31 µM | TGI [8]: 17.9 µM | GI50 [9]: 9.28 µM | TGI [9]: 21.2 µM | GI50 [10]: 3.48 µM | TGI [10]: 12 µM

COc1ccc(Cn2c(Cl)c(/C=C3/C(=O)Nc4ccccc43)c3cc(OC)c(C)cc32)cc1
GI50 [1]: 3.92 µM | TGI [1]: 31.7 µM | GI50 [2]: 4.06 µM | TGI [2]: > 100 µM | GI50 [4]: 8.94 µM | TGI [4]: > 100 µM | GI50 [5]: 5.96 µM | TGI [5]: > 100 µM | GI50 [6]: 5.55 µM | TGI [6]: > 100 µM | GI50 [7]: 4.26 µM | TGI [7]: 79 µM | GI50 [8]: 4.15 µM | TGI [8]: > 100 µM | GI50 [9]: 4.15 µM | TGI [9]: > 100 µM | GI50 [10]: 14.3 µM | TGI [10]: > 100 µM

O=C1Nc2cccc3cc(NCC(O)CCl)cc1c23 (configuration not stated)
TGI [1]: > 100 µM | TGI [2]: > 100 µM | TGI [3]: > 100 µM | TGI [4]: > 100 µM | TGI [5]: > 100 µM | TGI [6]: 95.2 µM | TGI [7]: > 100 µM | TGI [8]: > 100 µM | TGI [10]: > 100 µM

CN1C(=O)C(Cl)(C(Cl)(Cl)S(=O)(=O)O)C(=O)c2ccccc21 (configuration not stated)
TGI [1]: > 100 µM | TGI [2]: > 100 µM | TGI [3]: > 100 µM | TGI [4]: > 100 µM | TGI [5]: > 100 µM | TGI [6]: > 100 µM | TGI [7]: > 100 µM | TGI [9]: > 100 µM | TGI [10]: > 100 µM

O=c1[nH]c2cc3[nH]c4ncccc4c(=O)c3cc2[nH]1
TGI [1]: > 10 µM | TGI [2]: > 10 µM | TGI [4]: > 10 µM | TGI [5]: > 10 µM | TGI [6]: > 10 µM | TGI [7]: > 10 µM | TGI [8]: > 10 µM | TGI [9]: > 10 µM | TGI [10]: > 10 µM

COC(=O)c1nc(N)[nH]c(=O)c1CCCCCc1c(C(=O)OC)nc(N)[nH]c1=O
TGI [1]: > 50 µM | TGI [2]: > 50 µM | TGI [3]: > 50 µM | TGI [4]: > 50 µM | TGI [5]: > 50 µM | TGI [7]: > 50 µM | TGI [8]: > 50 µM | TGI [9]: > 50 µM | TGI [10]: > 50 µM

CCN(CC)c1ccc2c(c1)Nc1cc(=C(C#N)C#N)c3ccccc3c1=N2
TGI [1]: > 100 µM | TGI [2]: > 100 µM | TGI [3]: > 100 µM | TGI [4]: > 100 µM | TGI [5]: > 100 µM | TGI [6]: > 100 µM | TGI [7]: > 100 µM | TGI [9]: > 100 µM | TGI [10]: > 100 µM

Cc1ccc(SC(=O)N2C(=S)NC(=NC3CCCCC3)C23CCCCC3)cc1
TGI [1]: > 100 µM | TGI [2]: > 100 µM | TGI [3]: > 100 µM | TGI [4]: > 100 µM | TGI [7]: > 100 µM | TGI [8]: > 100 µM | TGI [9]: > 100 µM | TGI [10]: > 100 µM

Cc1cc(=O)oc2cc(O)c(CN(C)CC(=O)O)cc12
TGI [1]: > 100 µM | TGI [2]: > 100 µM | TGI [3]: > 100 µM | TGI [4]: > 100 µM | TGI [5]: > 100 µM | TGI [7]: > 100 µM | TGI [8]: > 100 µM | TGI [9]: > 100 µM | TGI [10]: > 100 µM
